Results published in PubChem BioAssay (NCI).
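The compound was tested at five concentrations on cells cultured in 96-well plates, with a 48-hour exposure period. TGI denotes the concentration required for complete inhibition of growth.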

Columns and labels:
Test in all cases: NCI tumour cell line growth inhibition, 48 h
HT29 colon = test system: HT29 colon
DMS 114 small cell lung = test system: DMS 114 small cell lung
OVCAR-4 ovarian = test system: OVCAR-4 ovarian
SNB-19 CNS = test system: SNB-19 CNS
XF 498 CNS = test system: XF 498 CNS
LXFL 529 NSCLC = test system: LXFL 529 NSCLC
ACHN renal = test system: ACHN renal
K-562 leukemia = test system: K-562 leukemia
SK-MEL-28 melanoma = test system: SK-MEL-28 melanoma
RXF-631 renal = test system: RXF-631 renal
786-0 renal = test system: 786-0 renal
HCT-15 colon = test system: HCT-15 colon
SK-MEL-5 melanoma = test system: SK-MEL-5 melanoma
DMS 273 small cell lung = test system: DMS 273 small cell lung
UO-31 renal = test system: UO-31 renal
HOP-62 NSCLC = test system: HOP-62 NSCLC
SW-620 colon = test system: SW-620 colon
NCI-H522 lung = test system: NCI-H522 lung
DLD-1 colon = test system: DLD-1 colon
CAKI-1 renal = test system: CAKI-1 renal
SR leukemia = test system: SR leukemia
A549 NSCLC = test system: A549 NSCLC
SNB-78 CNS = test system: SNB-78 CNS
CCRF-CEM leukemia = test system: CCRF-CEM leukemia
U251 CNS = test system: U251 CNS
NCI-H460 lung = test system: NCI-H460 lung
NCI-H226 lung = test system: NCI-H226 lung
KM12 colon = test system: KM12 colon
HOP-92 NSCLC = test system: HOP-92 NSCLC
SF-268 CNS = test system: SF-268 CNS
M19-MEL melanoma = test system: M19-MEL melanoma
SF-539 CNS = test system: SF-539 CNS
COLO 205 colon = test system: COLO 205 colon
HCT-116 colon = test system: HCT-116 colon
SK-OV-3 ovarian = test system: SK-OV-3 ovarian
RPMI-8226 leukemia = test system: RPMI-8226 leukemia
HL-60(TB) leukemia = test system: HL-60(TB) leukemia
MALME-3M melanoma = test system: MALME-3M melanoma
EKVX NSCLC = test system: EKVX NSCLC
M14 melanoma = test system: M14 melanoma
UACC-62 melanoma = test system: UACC-62 melanoma
RXF 393 renal = test system: RXF 393 renal
SF-295 CNS = test system: SF-295 CNS
TK-10 renal = test system: TK-10 renal
IGROV1 ovarian = test system: IGROV1 ovarian
MOLT-4 leukemia = test system: MOLT-4 leukemia
HCC-2998 colon = test system: HCC-2998 colon
SK-MEL-2 melanoma = test system: SK-MEL-2 melanoma
UACC-257 melanoma = test system: UACC-257 melanoma
NCI-H23 lung = test system: NCI-H23 lung
LOX IMVI melanoma = test system: LOX IMVI melanoma
OVCAR-5 ovarian = test system: OVCAR-5 ovarian
SNB-75 CNS = test system: SNB-75 CNS

Measured: TGI

Nc1nnc(N)n1N
> 100 µM: all assays above
